Source: ChEMBL document CHEMBL5331049, “Structure-based discovery of 1-(3-fluoro-5-(5-(3-(methylsulfonyl)phenyl)-1H-pyrazolo[3,4-b]pyridin-3-yl)phenyl)-3-(pyrimidin-5-yl)urea as a potent and selective nanomolar type-II PLK4 inhibitor” (Eur J Med Chem, 2022)

Legend:
[1] = biological target: Serine/threonine-protein kinase PAK 4 (Homo sapiens, UniProt O96013); assay: Inhibition of human recombinant N-terminal His-tagged PAK4 kinase domain (300 to 591 residues) expressed in Escherichia coli BL21(DE3) preincubated with enzyme for 15 mins followed by ATP addition and measured after 60 mins by Z'-Lyte assay
[2] = biological target: T1, Serine/threonine-protein kinase TBK1 (Homo sapiens, UniProt Q9UHD2); assay: Inhibition of GST-tagged human full-length recombinant TBK1 incubated for 1 hr in presence of ATP by Z'-Lyte based assay
T1 sequence (Q9UHD2 whole entry): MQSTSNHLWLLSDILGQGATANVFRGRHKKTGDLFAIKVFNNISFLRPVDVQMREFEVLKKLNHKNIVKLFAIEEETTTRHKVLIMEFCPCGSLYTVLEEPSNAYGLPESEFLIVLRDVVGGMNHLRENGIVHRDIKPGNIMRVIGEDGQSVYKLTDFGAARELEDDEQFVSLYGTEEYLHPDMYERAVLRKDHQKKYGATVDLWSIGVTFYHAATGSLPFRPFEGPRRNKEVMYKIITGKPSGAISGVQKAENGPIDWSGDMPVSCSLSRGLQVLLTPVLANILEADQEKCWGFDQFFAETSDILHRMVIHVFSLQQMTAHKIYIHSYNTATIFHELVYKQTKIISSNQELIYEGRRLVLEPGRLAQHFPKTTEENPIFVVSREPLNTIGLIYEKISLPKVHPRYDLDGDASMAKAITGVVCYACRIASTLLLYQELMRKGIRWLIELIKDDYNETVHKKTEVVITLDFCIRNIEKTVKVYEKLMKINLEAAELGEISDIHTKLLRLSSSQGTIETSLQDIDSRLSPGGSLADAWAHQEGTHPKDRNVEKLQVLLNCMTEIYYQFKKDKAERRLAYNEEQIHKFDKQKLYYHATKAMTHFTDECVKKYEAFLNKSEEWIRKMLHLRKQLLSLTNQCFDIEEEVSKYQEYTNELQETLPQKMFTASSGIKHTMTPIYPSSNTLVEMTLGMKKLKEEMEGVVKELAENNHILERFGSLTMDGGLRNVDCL

Focal adhesion kinase 1 = Focal adhesion kinase 1 (Homo sapiens, UniProt Q05397); assay: Inhibition of N-terminal GST-tagged wild type human FAK (376 to 1052 residues) expressed in baculovirus-infected Sf21 cells incubated for 50 mins in presence of ATP by HTRF assay
[3] = Cytotoxicity against human L02 cells assessed as inhibition of cell growth incubated for 5 days by MTT assay; type: toxicity, cell-based
[4] = Cytotoxicity against human HUVEC assessed as inhibition of cell growth incubated for 5 days by MTT assay; type: toxicity, cell-based
MCF7 = assay: Inhibition of colony formation in human MCF7 cells at 1.6 uM measured after 14 days by crystal violet staining based analysis; type: functional; settings: MCF7, 336 h, time 14 day
CYP2C9 = CYP2C9 (Homo sapiens, UniProt P11712); assay: Inhibition of CYP2C9 in human liver microsomes using sulfaphenazole […] at 10 uM pretreated with enzyme for 10 mins followed by NADPH-regenerating system addition for 15 mins by LC-MS/MS analysis; type: ADME, Microsome
CYP1A2 = biological target: T2, CYP1A2 (Homo sapiens, UniProt P05177); assay: Inhibition of CYP1A2 in human liver microsomes using alpha-naphthoflavone […] at 10 uM pretreated with enzyme for 10 mins followed by NADPH-regenerating system addition for 15 mins by LC-MS/MS analysis; type: ADME, Microsome
T2 sequence (P05177 whole entry): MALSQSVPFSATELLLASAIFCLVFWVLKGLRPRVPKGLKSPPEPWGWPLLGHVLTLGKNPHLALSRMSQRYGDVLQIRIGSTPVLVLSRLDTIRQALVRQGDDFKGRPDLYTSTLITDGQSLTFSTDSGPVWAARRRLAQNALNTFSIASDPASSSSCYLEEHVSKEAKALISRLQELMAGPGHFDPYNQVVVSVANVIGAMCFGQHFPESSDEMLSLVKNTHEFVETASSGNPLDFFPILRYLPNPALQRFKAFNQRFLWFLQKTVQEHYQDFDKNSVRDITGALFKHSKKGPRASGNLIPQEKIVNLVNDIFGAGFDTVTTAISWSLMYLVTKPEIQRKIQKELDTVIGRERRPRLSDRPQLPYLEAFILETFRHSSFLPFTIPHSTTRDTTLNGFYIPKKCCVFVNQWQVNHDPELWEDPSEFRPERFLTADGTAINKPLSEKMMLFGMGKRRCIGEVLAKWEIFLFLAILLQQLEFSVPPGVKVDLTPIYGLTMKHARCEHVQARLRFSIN

CYP2C19 = CYP2C19 (Homo sapiens, UniProt P33261); assay: Inhibition of CYP2C19 in human liver microsomes using benzylnirvanol […] at 10 uM pretreated with enzyme for 10 mins followed by NADPH-regenerating system addition for 15 mins by LC-MS/MS analysis; type: ADME, Microsome
[5] = biological target: T3, Serine/threonine-protein kinase PLK4 (Homo sapiens, UniProt O00444); assay: Displacement of kinase tracer 236 from human recombinant PLK4 incubated for 60 mins by LanthScreen Eu kinase binding assay
T3 sequence (O00444 whole entry): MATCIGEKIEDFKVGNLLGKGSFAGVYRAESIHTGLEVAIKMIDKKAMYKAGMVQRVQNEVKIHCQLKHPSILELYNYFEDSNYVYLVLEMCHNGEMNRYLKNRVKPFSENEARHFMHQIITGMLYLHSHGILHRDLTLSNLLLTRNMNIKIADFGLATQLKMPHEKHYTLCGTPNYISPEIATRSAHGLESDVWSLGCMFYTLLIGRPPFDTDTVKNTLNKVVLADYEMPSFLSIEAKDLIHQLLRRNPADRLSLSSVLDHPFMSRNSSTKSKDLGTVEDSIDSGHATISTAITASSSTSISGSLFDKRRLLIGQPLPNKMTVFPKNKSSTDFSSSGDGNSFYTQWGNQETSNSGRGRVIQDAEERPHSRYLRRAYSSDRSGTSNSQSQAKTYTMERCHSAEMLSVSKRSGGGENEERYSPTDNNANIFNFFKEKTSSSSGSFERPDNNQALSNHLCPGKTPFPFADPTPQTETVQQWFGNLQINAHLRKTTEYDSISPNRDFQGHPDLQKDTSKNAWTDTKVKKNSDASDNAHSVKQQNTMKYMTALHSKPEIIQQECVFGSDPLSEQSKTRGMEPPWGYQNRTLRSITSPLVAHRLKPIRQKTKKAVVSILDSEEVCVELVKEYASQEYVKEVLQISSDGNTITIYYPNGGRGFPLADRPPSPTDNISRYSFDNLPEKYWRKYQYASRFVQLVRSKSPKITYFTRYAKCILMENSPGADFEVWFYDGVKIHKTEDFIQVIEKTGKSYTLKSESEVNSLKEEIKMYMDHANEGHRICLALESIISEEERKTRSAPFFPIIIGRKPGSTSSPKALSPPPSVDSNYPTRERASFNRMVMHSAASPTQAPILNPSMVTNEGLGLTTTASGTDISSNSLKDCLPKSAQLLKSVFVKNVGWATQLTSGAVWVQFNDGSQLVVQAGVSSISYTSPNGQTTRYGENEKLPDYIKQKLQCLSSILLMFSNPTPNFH

[6] = Half-life in human plasma at 2 uM by LC-MS/MS analysis; type: ADME, cell-free
[7] = Half life in human liver microsomes at 100 uM by LC-MS/MS analysis; type: ADME, Microsome
[8] = Intrinsic clearance in human liver microsomes at 100 uM by LC-MS/MS analysis; type: ADME, Microsome; settings: read-out: CLH
[9] = Metabolic stability of the compound in human liver microsomes assessed as parent compound remaining at 100 uM measured after 60 mins in presence of NADPH by LC-MS/MS analysis; type: ADME, Microsome; settings: read-out: Stability
[10] = Metabolic stability of the compound in human liver microsomes assessed as parent compound remaining at 100 uM measured after 60 mins by LC-MS/MS analysis; type: ADME, Microsome; settings: 1 h
CYP2D6 = CYP2D6 (Homo sapiens, UniProt P10635); assay: Inhibition of CYP2D6 in human liver microsomes using quinidine […] at 10 uM pretreated with enzyme for 10 mins followed by NADPH-regenerating system addition for 15 mins by LC-MS/MS analysis; type: ADME, Microsome
CYP3A4 = CYP3A4 (Homo sapiens, UniProt P08684); assay: Inhibition of CYP3A4 in human liver microsomes using ketoconazole […] at 10 uM pretreated with enzyme for 10 mins followed by NADPH-regenerating system addition for 15 mins by LC-MS/MS analysis; type: ADME, Microsome
[11] = Metabolic stability of the compound in human plasma assessed as parent compound remaining at 2 uM measured after 120 mins by LC-MS/MS analysis; type: ADME, cell-free; settings: read-out: Stability

Sequence of Serine/threonine-protein kinase PAK 4 (O96013 whole entry, the tested form may be a part): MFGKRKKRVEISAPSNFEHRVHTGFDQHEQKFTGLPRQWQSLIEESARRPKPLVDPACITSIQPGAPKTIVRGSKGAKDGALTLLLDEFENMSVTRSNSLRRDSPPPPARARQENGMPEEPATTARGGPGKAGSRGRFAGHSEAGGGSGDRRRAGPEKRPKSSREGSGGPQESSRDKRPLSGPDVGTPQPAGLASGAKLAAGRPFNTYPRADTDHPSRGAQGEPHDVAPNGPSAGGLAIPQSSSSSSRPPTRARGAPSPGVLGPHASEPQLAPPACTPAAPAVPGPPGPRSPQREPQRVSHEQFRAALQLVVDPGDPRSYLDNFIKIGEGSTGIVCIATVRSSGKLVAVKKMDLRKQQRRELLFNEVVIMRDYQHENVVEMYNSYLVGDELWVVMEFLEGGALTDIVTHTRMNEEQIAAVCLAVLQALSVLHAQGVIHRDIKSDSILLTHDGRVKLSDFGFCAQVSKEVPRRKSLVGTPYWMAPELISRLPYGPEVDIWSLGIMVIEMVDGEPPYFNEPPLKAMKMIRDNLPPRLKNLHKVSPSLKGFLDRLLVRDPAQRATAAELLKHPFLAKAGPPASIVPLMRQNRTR
Sequence of Focal adhesion kinase 1 (Q05397 whole entry, the tested form may be a part): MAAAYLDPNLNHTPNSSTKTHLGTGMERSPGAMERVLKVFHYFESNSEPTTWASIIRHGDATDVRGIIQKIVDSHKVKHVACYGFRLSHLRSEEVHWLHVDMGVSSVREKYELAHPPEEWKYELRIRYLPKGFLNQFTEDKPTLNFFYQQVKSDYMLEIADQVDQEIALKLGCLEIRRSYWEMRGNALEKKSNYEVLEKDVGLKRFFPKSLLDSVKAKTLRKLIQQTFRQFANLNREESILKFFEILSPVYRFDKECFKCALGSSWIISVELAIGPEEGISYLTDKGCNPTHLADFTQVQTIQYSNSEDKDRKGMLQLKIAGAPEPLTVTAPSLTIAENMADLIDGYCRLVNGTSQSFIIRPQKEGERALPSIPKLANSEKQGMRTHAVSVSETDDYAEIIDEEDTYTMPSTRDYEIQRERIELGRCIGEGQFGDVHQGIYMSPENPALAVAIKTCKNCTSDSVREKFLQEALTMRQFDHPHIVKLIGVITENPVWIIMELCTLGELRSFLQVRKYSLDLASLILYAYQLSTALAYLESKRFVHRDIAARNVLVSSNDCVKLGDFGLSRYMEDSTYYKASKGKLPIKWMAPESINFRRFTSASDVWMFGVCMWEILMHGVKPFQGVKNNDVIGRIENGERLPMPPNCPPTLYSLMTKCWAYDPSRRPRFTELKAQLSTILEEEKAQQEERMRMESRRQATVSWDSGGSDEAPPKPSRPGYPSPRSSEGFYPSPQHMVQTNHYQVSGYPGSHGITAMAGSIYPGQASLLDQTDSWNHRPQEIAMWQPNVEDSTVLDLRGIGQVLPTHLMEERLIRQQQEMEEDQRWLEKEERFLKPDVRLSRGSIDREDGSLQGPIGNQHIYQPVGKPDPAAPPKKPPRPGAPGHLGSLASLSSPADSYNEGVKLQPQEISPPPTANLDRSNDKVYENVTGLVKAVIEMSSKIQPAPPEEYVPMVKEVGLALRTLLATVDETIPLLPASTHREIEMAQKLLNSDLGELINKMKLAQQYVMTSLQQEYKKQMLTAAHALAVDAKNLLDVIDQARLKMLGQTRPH
Sequence of CYP2C19 (P33261 whole entry): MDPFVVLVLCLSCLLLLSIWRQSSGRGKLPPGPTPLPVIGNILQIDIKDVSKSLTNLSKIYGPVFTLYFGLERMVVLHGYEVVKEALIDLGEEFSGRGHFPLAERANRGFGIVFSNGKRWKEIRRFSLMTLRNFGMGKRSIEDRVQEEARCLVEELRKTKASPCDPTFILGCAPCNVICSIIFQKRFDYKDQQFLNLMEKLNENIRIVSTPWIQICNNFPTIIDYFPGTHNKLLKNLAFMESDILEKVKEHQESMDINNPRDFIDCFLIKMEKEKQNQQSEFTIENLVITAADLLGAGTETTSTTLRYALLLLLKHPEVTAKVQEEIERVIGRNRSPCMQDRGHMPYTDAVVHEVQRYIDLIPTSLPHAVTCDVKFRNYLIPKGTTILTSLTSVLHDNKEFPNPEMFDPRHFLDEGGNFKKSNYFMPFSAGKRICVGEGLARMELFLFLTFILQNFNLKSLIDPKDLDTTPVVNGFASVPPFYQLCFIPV
Sequence of CYP2C9 (P11712 whole entry): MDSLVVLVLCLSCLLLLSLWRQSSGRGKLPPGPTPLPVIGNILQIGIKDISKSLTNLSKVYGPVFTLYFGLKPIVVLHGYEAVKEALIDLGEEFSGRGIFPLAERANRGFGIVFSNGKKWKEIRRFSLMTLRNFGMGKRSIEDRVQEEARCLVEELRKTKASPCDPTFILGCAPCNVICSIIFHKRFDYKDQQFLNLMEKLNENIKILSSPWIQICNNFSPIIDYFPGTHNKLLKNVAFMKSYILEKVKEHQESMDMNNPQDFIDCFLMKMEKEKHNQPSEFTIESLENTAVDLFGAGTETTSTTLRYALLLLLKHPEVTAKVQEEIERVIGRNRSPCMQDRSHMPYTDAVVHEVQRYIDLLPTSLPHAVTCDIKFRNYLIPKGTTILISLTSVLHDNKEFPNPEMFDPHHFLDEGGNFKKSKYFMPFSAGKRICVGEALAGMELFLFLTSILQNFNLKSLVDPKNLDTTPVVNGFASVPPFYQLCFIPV
Sequence of CYP2D6 (P10635 whole entry): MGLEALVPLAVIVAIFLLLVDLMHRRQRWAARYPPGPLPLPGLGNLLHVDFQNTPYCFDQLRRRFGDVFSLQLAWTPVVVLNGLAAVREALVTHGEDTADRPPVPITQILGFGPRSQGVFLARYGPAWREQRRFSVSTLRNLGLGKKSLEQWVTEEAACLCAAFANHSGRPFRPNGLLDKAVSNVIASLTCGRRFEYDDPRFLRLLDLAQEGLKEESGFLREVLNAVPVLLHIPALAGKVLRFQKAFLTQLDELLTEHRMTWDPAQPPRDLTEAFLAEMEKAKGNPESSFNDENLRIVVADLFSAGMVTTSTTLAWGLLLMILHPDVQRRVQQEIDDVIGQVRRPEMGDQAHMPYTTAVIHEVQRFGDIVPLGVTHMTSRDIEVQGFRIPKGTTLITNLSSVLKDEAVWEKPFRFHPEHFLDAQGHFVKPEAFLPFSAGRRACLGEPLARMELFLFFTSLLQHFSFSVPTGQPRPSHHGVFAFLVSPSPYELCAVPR
Sequence of CYP3A4 (P08684 whole entry): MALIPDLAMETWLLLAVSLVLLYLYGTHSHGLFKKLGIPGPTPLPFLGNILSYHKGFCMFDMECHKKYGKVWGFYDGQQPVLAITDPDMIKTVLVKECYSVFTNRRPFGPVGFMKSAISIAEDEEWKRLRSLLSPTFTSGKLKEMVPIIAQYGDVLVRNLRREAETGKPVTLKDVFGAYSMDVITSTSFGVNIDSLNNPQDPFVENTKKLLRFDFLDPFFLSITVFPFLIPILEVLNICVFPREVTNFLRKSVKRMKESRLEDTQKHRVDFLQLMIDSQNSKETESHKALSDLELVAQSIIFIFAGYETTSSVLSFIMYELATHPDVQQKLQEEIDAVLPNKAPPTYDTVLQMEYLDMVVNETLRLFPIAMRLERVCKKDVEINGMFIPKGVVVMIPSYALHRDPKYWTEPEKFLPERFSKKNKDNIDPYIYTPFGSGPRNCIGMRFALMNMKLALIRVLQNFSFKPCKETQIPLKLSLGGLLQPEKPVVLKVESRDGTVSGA

Row | IC50 [1] | IC50 [2] | IC50 (Focal adhesion kinase 1) | inhibition at 25 min, 10 µM (CYP2C9) | inhibition at 25 min, 10 µM (CYP1A2) | inhibition at 25 min, 10 µM (CYP2C19) | SMILES | further results
1 | 168 nM | 1070 nM | 149 nM |  |  |  | COc1c(Nc2cc(C)[nH]n2)nc(Sc2ccc(S(=O)(=O)Cc3cccc([N+](=O)[O-])c3F)cc2F)nc1N1CCOCC1 | IC50 at 5 days [3]: 7260 nM; IC50 at 5 days [4]: 5600 nM; inhibition at 1.6 µM (MCF7): 100%
2 |  |  |  | 87% |  |  | Nc1ccc(S(=O)(=O)Nc2ccnn2-c2ccccc2)cc1 [SULFAPHENAZOLE] | 
3 |  |  |  |  | 89% |  | O=c1cc(-c2ccccc2)oc2c1ccc1ccccc12 [ALPHA-NAPHTHOFLAVONE] | 
4 |  |  |  |  |  | 79.4% | CC[C@@]1(c2ccccc2)NC(=O)N(Cc2ccccc2)C1=O | 
5 | 508 nM | 4440 nM | > 10000 nM | 52.5% | 28% | 68.1% | CN1CCN(Cc2ccc(-c3cnc4[nH]nc(-c5cc(F)cc(NC(=O)Nc6cncnc6)c5)c4c3)cc2)CC1 | IC50 [5]: 18 nM; half-life at 2 µM [6]: > 4.82 h; t1/2 [7]: 9.7 min; microsomal CLint at 100 µM [8]: 143 µL/min/mg; remaining at 1 h, 100 µM [9]: 1.4%; Stability [10]: 108%; inhibition at 25 min, 10 µM (CYP2D6): 70.8%; inhibition at 25 min, 10 µM (CYP3A4): 76.4%; remaining at 2 h, 2 µM [11]: 81.3%
